Laboratory results: patent publication US20110280812A1, “FLAVOR-ENHANCING AMIDE COMPOUNDS” (priority 2010, published 2011)

Legend:
[1] = tested on: trained sensory panel; assay: Sensory panel evaluation of MSG-IMP mixture combined with Formulas II-IV; format: in vivo; conditions: 0.01% MSG and 0.005% IMP; for effect on umami flavor of the MSG-IMP mixture: summary, no concentration stated
Text: The MSG-inosine monophosphate (IMP) mixture (0.01% MSG and 0.005% IMP), an umami composition, was combined with Formulas II-IV at different concentrations and evaluated by a trained sensory panel.

[2] = tested on: trained sensory panel; assay: Sensory panel evaluation of MSG (0.02%) combined with Formula II; format: in vivo
Method: The flavor compositions of MSG (0.02%) combined with (2E,4E)-N-phenethylundeca-2,4-dien-8,10-diynamide (Formula II) at different concentrations were evaluated by a trained sensory panel using an intensity scale of 0 to 5, where 0=none, 1=minimal, 3=moderate, and 5=intense. Averaged sensory scores were reported in the following: […]

Row | SMILES | effect on umami flavor of the MSG-IMP mixture [1] | Flavor Profile ([2]; Formula II 0) | Flavor Intensity ([2]; Formula II 0, averaged sensory score, scale 0 to 5 (0=none, 1=minimal, 3=moderate, 5=intense)) | effect on umami flavor of MSG ([2]; summary over the concentrations tested) | Flavor Profile: effect on umami flavor of the MSG-IMP mixture ([1]; amide at 500 ppb)
1 | C#CC#CCC/C=C/C=C/C(=O)NCC(C)CC (stereo not drawn) [Formula IV, (2E,4E)-N-(2-methylbutyl)undeca-2,4-dien-8,10-diynamide] | enhanced the umami flavor of the MSG-IMP mixture | – | – | – | –
2 | N[C@@H](CCC(=O)O)C(=O)[O-].[Na+] [MSG, monosodium glutamate] | – | umami | 1.0 | – | –
3 | C#CC#CCC/C=C/C=C/C(=O)NCCc1ccccc1 [Formula II, (2E,4E)-N-phenethylundeca-2,4-dien-8,10-diynamide] | enhanced the umami flavor of the MSG-IMP mixture | – | – | enhanced the umami flavor of MSG | strongest enhancement
